Data set [1] concerns Trichophyton rubrum IFO 9185. The data set is described as follows: Antifungal MIC, Sabouraud glucose liquid medium. The format is cell-based. The source says: (§1) The present inventors also evaluated antifungal activity of glionitrins A and B against those strains distributed from American Type Culture Collection (ATCC, Manassas, Va., USA) such as Aspergillus fumigatus HIC 6094 and Trichophyton rubrum IFO 9185. […] To determine MIC of glionitrin for those two fungus strains, spores of the fungus strains were suspended in sterilized distilled water at the density of 10^5 spores/mL and the density was adjusted by using Sabouraud glucose liquid medium (Difco) to 10^3 cells/mL. Then, the cells were distributed in a 96-well plate at the density of 10^2 cells/100 μl/well, to which glionitrin was added at different concentrations, followed by culture at 28° C. for […]. The concentration of glionitrin at which no fungi growth was confirmed was determined as MIC.

Data set [2] concerns Aspergillus fumigatus HIC 6094. The data set is described as follows: Antifungal MIC, Sabouraud glucose liquid medium. The data set is classed as cell-based.
From the text: as §1

In data set [3] the test system is S. aureus ATCC 700787(MRSA). The data set is described as follows: Antibacterial MIC, broth dilution, OD600. The data set is classed as cell-based. As to conditions: Staphylococcus aureus, 24 h. Here is the method: (§2) The present inventors also investigated antibacterial effect of glionitrin A and glionitrin B using Micrococcus leuteus IFC 12708, Bacillus subtilis ATCC 6633, Proteus vulgaris ATCC 3851, Salmonella typhimurium ATCC 1 4028 and 3 MRSA strains, Staphylococcus aureus ATCC 43300, S. aureus ATCC 700787 and S. aureus ATCC 700788 distributed from American Type Culture Collection (ATCC, Manassas, Va., USA). […] Then, the medium was eliminated and 100 μl of medium containing 10^5 cfu/mL of each strain was loaded in each well of a 96-well plate. Glionitrin diluted at different concentrations was added thereto, followed by culture at 37° C. for 24 hours. 24 hours later, OD600 was measured.
(Broth dilution looks for growth in wells or tubes with falling amounts of substance.)

The subject of data set [4] is Salmonella typhimurium ATCC 14028[G(−)]. The data set is described as follows: Antibacterial MIC, broth dilution, OD600. The data set is classed as cell-based. The settings on record: Salmonella enterica. How it is done:
as §2

Data set [5] has as its system Bacillus subtilis ATCC 6633 [G(+)]. The experiment in a line: Antibacterial MIC, broth dilution, OD600. The format is cell-based. How it is done: as §2
Data set [6] deals with S. aureus ATCC 700788(MRSA). The data set is described as follows: Antibacterial MIC, broth dilution, OD600. The format is cell-based. As to conditions: Staphylococcus aureus. Here is the method:
as §2

For data set [7], the system named is Proteus vulgaris ATCC 3851[G(−)]. The data set is described as follows: Antibacterial MIC, broth dilution, OD600. The format is cell-based. How it is done:
as §2

The test system of data set [8] is Staphylococcu aureus ATCC 4330(MRSA). The experiment in a line: Antibacterial MIC, broth dilution, OD600. The format is cell-based. As to conditions: Staphylococcus aureus, 24 h. Here is the method:
as §2

Data set [9] concerns Micrococus leuteus IFC 12708[G(+)]. The experiment in a line: Antibacterial MIC, broth dilution, OD600. The format is cell-based, Micrococcus leuteus. The settings on record: Micrococcus. How it is done:
as §2

The test system of data set [10] is Aspergillus fumigatus HIC 6094 and Trichophyton rubrum IFO 9185. The data set is described as follows: Antifungal MIC. The format is cell-based.
From the text: as §1

The test system of a further data set is MCF-7. The experiment in a line: In vitro MTT cytotoxicity assay. As to conditions: Homo sapiens, MCF7. The data set is classed as cell-based. Background: Tetrazolium assays rely on reduction of a dye to a coloured formazan, in cell work by metabolically active cells.
The subject of data set [11] is HCT-116 (colon cancer, CCL-247). The data set is described as follows: In vitro MTT cytotoxicity assay. The data set is classed as cell-based. The settings on record: Homo sapiens, HCT-116, 24 h. Here is the method:
(§3) The present inventors investigated cytotoxic effect of glionitrin on cancer cells with in vitro MTT (3-[4,5-dimethylthiazol-2-yl]-2,5-diphenyltrazdium bromide) assay to quantify live cancer cells. Cancer cell cytotoxicity of glionitrin was evaluated using AGS (stomach cancer, ATCC CRL-1739™), HepG2 (liver cancer, HB-8065™), HCT116 (colon cancer, CCL-247™), A549 (lung cancer, CCL-185™) and DU145 (prostatic cancer, HTB-81™) distributed from American Type Culture Collection (ATCC, Manassas, Va., USA). Stomach cancer (AGS), liver cancer (HepG2), colon cancer (HCT-116), lung cancer (A549) or prostatic cancer (DU-145) cells were distributed in a 96-well plate at the density of 1×10^4 cells/100 μl/well, followed by culture in a 37° C., CO2 incubator for 24 hours. Then, the medium was replaced with a fresh one containing glionitrin, followed by culture at 37° C. 24 hours later, MTT solution was added thereto by 10 μl/well, followed by further culture for 1 hour at 37° C. One hour later, formazane generated by reductase in live cells was quantified by measuring OD450.

The subject of data set [12] is DU-145 (prostatic cancer, HTB-81). The data set is described as follows: In vitro MTT cytotoxicity assay. As to conditions: Homo sapiens, DU-145, 24 h. The data set is classed as cell-based. How it is done:
as §3

Data set [13] has as its system AGS (stomach cancer, ATCC CRL-1739). The data set is described as follows: In vitro MTT cytotoxicity assay. As to conditions: 24 h. The format is cell-based. Here is the method: as §3
For data set [14], the system named is A549 (lung cancer, CCL-185). The data set is described as follows: In vitro MTT cytotoxicity assay. The format is cell-based. As to conditions: Homo sapiens, A549, 24 h. How it is done:
as §3

Data set [15] has as its system HepG2 (liver cancer, HB-8065). The data set is described as follows: In vitro MTT cytotoxicity assay. The format is cell-based. As to conditions: Homo sapiens, HepG2, 24 h. Here is the method:
as §3

A further data set deals with 3 MRSA strains. The experiment in a line: Antibacterial MIC. The data set is classed as cell-based, Staphylococcus aureus. The settings on record: against 3 MRSA strains. How it is done:
as §2

Data set [16] can be described thus: Stability of glionitrin A in solution at room temperature. The format is physicochemical. The settings on record: water, acetonitrile aqueous solution, methanol aqueous solution or DMSO. The source says:
The chemical structures of the separated compounds were identified by using MS and nuclear spectrometer. As a result, it was confirmed that glionitrin A was amorphous light yellow powder represented by the molecular formula of C13H11N3O5S2 which had the molecular weight of 353, and glionitrin B was colorless mucous semi-solid material represented by the molecular formula of C15H17N3O5S2 which had the molecular weight of 383.
The present inventors performed instrumental analysis with glionitrins to determine the chemical formulas of glionitrin A and glionitrin B. The separated glionitrin A was left in water or DMAO at room temperature. […] Glionitrin A was measured in chloroform-d solvent and glionitrin B was measured in methanol-d4 solvent.

In the next data set the test system is 4 non-resistant strains. The data set is described as follows: Antibacterial MIC. The format is cell-based. How it is done:
as §2

The test system of a further data set is 7 bacterial strains. The experiment in a line: Antibacterial activity, text summary for the 7 bacterial strains. The format is cell-based. As to conditions: every experimental group (7 bacterial strains). How it is done:
as §2

Where [17] appears, read: Salmonella typhimurium ATCC 14028, 37° C., 24 hours, read-out: MIC.
Where [18] appears, read: ATCC6633, Bacillus subtilis ATCC 6633, 37° C., 24 hours, read-out: MIC.
[19] abbreviates: ATCC3851, Proteus vulgaris ATCC 3851, 37° C., 24 hours, read-out: MIC.
[20] abbreviates: Micrococus leuteus IFC 12708, 37° C., 24 hours, read-out: MIC.

≈ marks a conversion by molar mass, not a printed value. Where two headings read alike, the source gives them in different places. Bounds are passed on as bounds.

As to `C[C@@H]1[C@H](O)[C@@H](C)/C=C/C=C/C=C/C=C/C=C/C=C/C=C/[C@H](O[C@@H]2O[C@H](C)[C@@H](O)[C@H](N)[C@@H]2O)C[C@@H]2O[C@](O)(C[C@@H](O)C[C@@H](O)[C@H](O)CC[C@@H](O)C[C@@H](O)CC(=O)O[C@H]1C)C[C@H](O)[C@H]2C(=O)O` [amphotericin B, reference compound], the MIC is 1.56 µg/mL (≈ 1.69 µM) in data set [1] (Trichophyton rubrum IFO 9185, 28° C.) and 1.56 µg/mL (≈ 1.69 µM) in [2] (Aspergillus fumigatus HIC 6094, 28° C.).

`CC1(C)S[C@@H]2[C@H](NC(=O)[C@H](N)c3ccccc3)C(=O)N2[C@H]1C(=O)O` [ampicillin, reference compound]: the MIC in data set [3] is 12.5 µg/mL (≈ 35.8 µM); in data set [4] (setting [17]), 12.5 µg/mL (≈ 35.8 µM); in data set [5] (setting [18]) it was 3.13 µg/mL (≈ 8.96 µM); in data set [6] (S. aureus ATCC 700788 (MRSA), 37° C., 24 hours, read-out: MIC), 25 µg/mL (≈ 71.5 µM); in data set [7] (setting [19]), 1.56 µg/mL (≈ 4.46 µM); in [8] it was 12.5 µg/mL (≈ 35.8 µM). Moreover, in [9] (setting [20]), the minimum inhibitory concentration (MIC) was 0.78 µg/mL (≈ 2.23 µM).

As to `CN1C(=O)C23Cc4ccc([N+](=O)[O-])cc4N2C(=O)C1(CO)SS3` (stereo not shown) [glionitrin A], the MIC worked out at 12.5 µg/mL (≈ 35.4 µM) in data set [10] (read-out: MIC (antifungal activity)); 0.78 µg/mL (≈ 2.21 µM) in [3]; 3.13 µg/mL (≈ 8.86 µM) in [4] (24 h); 6.25 µg/mL (≈ 17.7 µM) in [5] (Bacillus subtilis, ATCC6633, 24 h); 0.78 µg/mL (≈ 2.21 µM) in data set [6] (24 h); 3.13 µg/mL (≈ 8.86 µM) in [7] (Proteus vulgaris, ATCC3851, 24 h). For the same compound, the minimum inhibitory concentration (MIC) was 0.78 µg/mL (≈ 2.21 µM) in data set [8]; 0.78 µg/mL (≈ 2.21 µM) in data set [9] (24 h); 12.5 µg/mL (≈ 35.4 µM) in [1] (Trichophyton rubrum, IFO9185); 12.5 µg/mL (≈ 35.4 µM) in data set [2] (Aspergillus fumigatus, HIC6094); 0.78 µg/mL (≈ 2.21 µM) against 3 MRSA strains (Staphylococcus aureus); 0.78 to 3.13 µg/mL (≈ 2.21 to 8.86 µM) against 4 non-resistant strains. The IC50 in the data set on MCF-7 is greater than 2000 nM; in data set [11], 820 ± 110 nM; in data set [12] it was 240 ± 20 nM; in [13] it was 450 ± 110 nM; in data set [14], 550 ± 70 nM; in [15] it was 2280 ± 300 nM. For the same compound, in the data set on 3 MRSA strains (versus positive control ampicillin), the “antibacterial activity relative to ampicillin” value came to 15 times. Besides, in data set [16], the stability in solution entry was “trisulfide (glionitrin C) and tetrasulfide (glionitrin D) were generated”.

Consider `CSC1(CO)C(=O)N2c3cc([N+](=O)[O-])ccc3CC2(SC)C(=O)N1C` (stereo not shown) [glionitrin B], for which the antifungal activity result in data set [10] (Aspergillus fumigatus HIC 6094 and Trichophyton rubrum IFO 9185) was “did not show antifungal activity”. Besides, the MIC in data set [3] is greater than 50 µg/mL; in data set [4] (setting [17]), greater than 50 µg/mL; in data set [5] (setting [18]) it was greater than 100 µg/mL; in data set [6] (24 h), greater than 50 µg/mL; in data set [7] (setting [19]), greater than 50 µg/mL; in data set [8], greater than 50 µg/mL. The MIC in [9] (setting [20]) was greater than 100 µg/mL; in data set [1] (IFO9185, Trichophyton rubrum IFO 9185, 28° C., read-out: MIC), greater than 50 µg/mL; in data set [2] (HIC6094, Aspergillus fumigatus HIC 6094, 28° C., read-out: MIC), greater than 50 µg/mL. Moreover, the IC50 was greater than 2000 nM with MCF-7 (MCF-7, MTT, read-out: IC50); 3280 ± 550 nM in [11] (MTT, read-out: IC50); 2290 ± 140 nM in data set [12] (MTT, read-out: IC50); 1250 ± 200 nM in [13] (AGS, MTT, read-out: IC50); 2250 ± 250 nM in [14] (MTT, read-out: IC50); greater than 2000 nM in data set [15] (MTT, read-out: IC50). Also, the antibacterial activity result in the data set with 7 bacterial strains is “no antibacterial activity at all”.

What is called MIC is the smallest concentration in the dilution series that meets the test's criterion for growth inhibition. A word on the IC50: it is the concentration that gives 50% inhibition.

The record behind these values is patent US20100215620A1, “THE CO-CULTURE METHOD OF SPHINGOMONAS SP. BACTERIAL STRAIN AND ASPERGILLUS SP. FUNGUS STRAIN, NEW ANTI-CANCER AND ANTIBIOTIC GLIONITRINS DERIVED FROM THIS CO-CULTURE METHOD, AND PHARMACEUTICAL COMPOSITION CONTAINING GLIONITRINS OR PHARMACEUTICALLY ACCEPTABLE SALT THEREOF AS AN ACTIVE INGREDIENT” (KOREA INSTITUTE OF SCIENCE AND TECHNOLOGY, priority 2007, published 2010).
